Assay results taken from patent publication US10723708B2, “Anti-HCMV compositions and methods” (FORGE Life Science, LLC, priority 2014, dated 2020).

These compounds were tested on human cytomegalovirus (HCMV) (assay: Antiviral activity against HCMV, virus yield/replication assay in MRC5 cells). Conditions: Human betaherpesvirus 5; infected human MRC5 cells; virus yield in supernatant at 96 hours / four days, read by IE protein expression in fresh MRC5 cells.
Assay type: cell-based
Procedure: Assessing Antiviral Activity Against Human Cytomegalovirus (HCMV)
To assess their antiviral activity, some compounds were tested against human cytomegalovirus (HCMV) in vitro. Human MRC5 cells were grown in Dulbecco's Modified Eagle Medium (DMEM) supplemented with 10% fetal bovine serum (FBS) and infected with an HCMV variant expressing GFP tagged pUL99 (the product of late viral UL99 gene) at a multiplicity of 1 infectious unit (IU) per cell. One hour later, medium of the cells was replaced with fresh medium containing the indicated compounds at 50, 25, 12.5, 6.25, 3.13, 1.56, 0.78, 0.39 μM or the carrier in which the compounds are dissolved (DMSO). Final concentration of DMSO was 0.5% in each treatment. Virus yield in the culture supernatant was determined at 96 hours after infection by infecting fresh MRC5 cells and assaying viral IE1 protein expression. Results were plotted using either Prism Software or CDD Vault (CDD Vault was developed by Collaborative Drug Discovery, Inc., 1633 Bayshore Hwy, Suite 342, Burlingame, Calif. 94010) in order to calculate IC50s.
Alternatively, antiviral efficacy of some compounds was assessed by inhibition of HCMV replication during in vitro replication assays. Briefly, confluent monolayers of MRC5 fibroblasts in a 96 well plate format (˜1.0×10^4 cells/well) were infected with an AD169 strain of HCMV for one hour. After the initial incubation hour, virus containing media was removed and 100 ul of media with sequential dilutions of FORGE compounds added to each well. The concentrations of the FORGE compounds were 50 μM, 25 μM, […], 6.25 μM, 3.125 μM, 1.56 μM, and 0.78125 μM as well as a vehicle control (0.5% DMSO). The concentration of DMSO was constant between all conditions. Assays were performed in duplicate. Infected plates were returned to the incubator and the viral infection was allowed to progress for four days. On the fourth day, 50 μL of cell free supernatant was collected from each well and used to infect a new 96 well plate seeded with a confluent monolayer of MRC5 fibroblasts along with 50 μL of media to bring the total volume to 100 μL. The next day the media was removed and the infected monolayer was fixed with cold methanol, and Immediate Early proteins were detected by immunofluorescence assays to quantify the number of cells that were infected with HCMV. IE gene expression was quantified within five random fields within each well and corresponding numbers were utilized to determine viral replication. Results from each well were normalized to the vehicle control well so as to allow a percent reduction from no drug treatment to be calculated. Results were plotted using either Prism Software or CDD Vault in order to calculate IC50s.

`COc1ccc(C(C)CCNc2cnc3ccccc3c2)cc1` (stereo not drawn) [Example 1] and `COc1cccc(C(C)CCNc2cnc3ccccc3c2)c1` (stereo not drawn) [Example 3] fall in the same range of IC50: 25 to 50 µM for the first, 25 to 50 µM for the second.

Compared with `COc1ccc(C(C)CC(=O)Nc2cnc3ccccc3c2)cc1` (stereo not drawn) [Example 2], `COc1cccc(C(C)CC(=O)Nc2cnc3ccccc3c2)c1` (stereo not drawn) [Example 4] is lower in IC50: greater than 50 µM for the first, 21.2 ± 14.5 µM for the second. The second is the more potent here.

First: CC(CCNc1cnc2ccccc2c1)c1ccccc1Cl (stereo not drawn) [Example 5]
Second: CC(CCNc1cnc2ccccc2c1)c1ccccc1 (stereo not drawn) [Example 7]
The IC50 of the first is lower: 18.6 ± 4.62 µM for the first, greater than 50 µM for the second.

Compared with `CC(CC(=O)Nc1cnc2ccccc2c1)c1ccccc1Cl` (stereo not drawn) [Example 6], `CC(CC(=O)Nc1cnc2ccccc2c1)c1ccccc1` (stereo not drawn) [Example 8] is 7-fold lower in IC50: 21.1 ± 14.5 µM for the first, 3.03 ± 0.69 µM for the second.

Compared with `COc1ccc(C(C)CCNc2ccc3ncccc3c2)cc1` (stereo not drawn) [Example 9], `COc1cccc(C(C)CCNc2ccc3ncccc3c2)c1` (stereo not drawn) [Example 11] is 2.4-fold higher in IC50: 2.41 ± 0.04 µM for the first, 5.75 ± 2.47 µM for the second. The first is the more potent here.

`COc1ccc(C(C)CC(=O)Nc2ccc3ncccc3c2)cc1` (stereo not drawn) [Example 10] and `COc1cccc(C(C)CC(=O)Nc2ccc3ncccc3c2)c1` (stereo not drawn) [Example 12] are within error of each other in IC50: 5.82 ± 1.98 µM for the first, 3.34 ± 1.45 µM for the second.

Going from `COc1ccccc1C(C)CCNc1ccc2ncccc2c1` (stereo not drawn) [Example 13] to `COc1ccccc1C(C)CC(=O)Nc1ccc2ncccc2c1` (stereo not drawn) [Example 14], the IC50 falls from 23.4 ± 0.6 µM to 2.2 ± 1.32 µM (11-fold).

`COc1ccc(C(C)CCNc2cccc3cccnc23)cc1` (stereo not drawn) [Example 15] and `COc1cccc(C(C)CCNc2cccc3cccnc23)c1` (stereo not drawn) [Example 17] are within error of each other in IC50: 3.27 ± 0.41 µM for the first, 2.69 ± 0.94 µM for the second.

First: COc1ccc(C(C)CC(=O)Nc2cccc3cccnc23)cc1 (stereo not drawn) [Example 16]
Second: COc1cccc(C(C)CC(=O)Nc2cccc3cccnc23)c1 (stereo not drawn) [Example 18]
The IC50 of the first is lower: 26.9 ± 11.5 µM for the first, greater than 50 µM for the second.

First: COc1ccccc1C(C)CCNc1cccc2cccnc12 (stereo not drawn) [Example 19]
Second: CCC(CCNc1cccc2cccnc12)c1ccccc1OC (stereo not drawn) [Example 32]
The IC50 of the first is 1.8-fold lower: 1.28 ± 0.16 µM for the first, 2.25 ± 0.33 µM for the second. The first is the more potent here.

`COc1ccccc1C(C)CC(=O)Nc1cccc2cccnc12` (stereo not drawn) [Example 20] and `CCC(CC(=O)Nc1cccc2cccnc12)c1ccccc1OC` (stereo not drawn) [Example 33] are within error of each other in IC50: 19.7 ± 14.7 µM for the first, 5.3 ± 0.31 µM for the second.

Compared with `CC(CCNc1cccc2cccnc12)c1ccccc1Cl` (stereo not drawn) [Example 21], `CC(CCCNc1cccc2cccnc12)c1ccccc1Cl` (stereo not drawn) [FH000006-K-8] is 5.2-fold higher in IC50: 1.2 ± 0.52 µM for the first, 6.3 µM for the second. The first is the more potent here.

First: CC(CC(=O)Nc1cccc2cccnc12)c1ccccc1Cl (stereo not drawn) [Example 22]
Second: CC(CCC(=O)Nc1cccc2cccnc12)c1ccccc1Cl (stereo not drawn) [FH000006-K-8-A]
The IC50 of the first is 3.5-fold lower: 1.28 ± 1.82 µM for the first, 4.5 µM for the second. The first is the more potent here.

`Cc1ccccc1C(C)CCNc1cccc2cccnc12` (stereo not drawn) [Example 23] and `CC(CCNc1cccc2cccnc12)c1ccccc1Br` (stereo not drawn) [Example 50] are within error of each other in IC50: 2.01 ± 0.71 µM for the first, 2.92 ± 1.26 µM for the second.

`Cc1ccccc1C(C)CC(=O)Nc1cccc2cccnc12` (stereo not drawn) [Example 24] and `CC(CC(=O)Nc1cccc2cccnc12)c1ccccc1` (stereo not drawn) [Example 49] cannot be ordered by IC50: greater than 50 µM for the first, greater than 50 µM for the second.

Going from `COc1ccccc1C(C)C(F)CNc1cccc2cccnc12` (stereo not drawn) [Example 25] to `COc1ccccc1C(C)C(O)CNc1cccc2cccnc12` (stereo not drawn) [Example 27], the IC50 rises from 3.73 ± 0.46 µM to 28.5 ± 2.68 µM (7.6-fold).

`COc1ccccc1C(C)C(F)C(=O)Nc1cccc2cccnc12` (stereo not drawn) [Example 26] and `COc1ccccc1C(C)C(C)C(=O)Nc1cccc2cccnc12` (stereo not drawn) [Example 29] are within error of each other in IC50: 5.38 ± 3.93 µM for the first, 11.5 ± 7.71 µM for the second.

`COc1ccccc1C(C)C(C)CNc1cccc2cccnc12` (stereo not drawn) [Example 28] and `COc1ccccc1CCCNc1cccc2cccnc12` [Example 30] are within error of each other in IC50: 2.89 ± 0.95 µM for the first, 12.1 ± 8.44 µM for the second.

Compared with `COc1ccccc1CCC(=O)Nc1cccc2cccnc12` [Example 31], `COc1ccc(Br)cc1C(C)CC(=O)Nc1cccc2cccnc12` (stereo not drawn) [Example 47] is lower in IC50: greater than 50 µM for the first, 5.88 ± 1.93 µM for the second.

`CC(CCNc1cccc2cccnc12)c1ccccn1` (stereo not drawn) [Example 34] and `CC(CC(=O)Nc1cccc2cccnc12)c1ccccn1` (stereo not drawn) [Example 35] cannot be ordered by IC50: greater than 50 µM for the first, greater than 50 µM for the second.

`COc1ccccc1C(C)CCn1ccc2ccccc21` (stereo not drawn) [Example 36] and `COc1ccccc1C(C)CC(=O)n1ccc2ccccc21` (stereo not drawn) [Example 37] cannot be ordered by IC50: greater than 50 µM for the first, greater than 50 µM for the second.

Compared with `COc1ccccc1C(C)CCNc1cccc2nccnc12` (stereo not drawn) [Example 38], `COc1ccccc1C(C)CC(=O)Nc1cccc2nccnc12` (stereo not drawn) [Example 39] is higher in IC50: 3.61 ± 0.54 µM for the first, greater than 50 µM for the second.

Going from `COc1ccccc1C(C)CCNc1cccc2ccccc12` (stereo not drawn) [Example 40] to `COc1ccccc1C(C)CC(=O)Nc1cccc2ccccc12` (stereo not drawn) [Example 41], the IC50 rises from 2.83 ± 0.28 µM to 29.2 ± 17.8 µM (10-fold). The first is the more potent here.

Compared with `COc1ccccc1C(C)CCNc1cccc2[nH]ccc12` (stereo not drawn) [Example 42], `COc1ccccc1C(C)CC(=O)Nc1cccc2[nH]ccc12` (stereo not drawn) [Example 43] is 9.5-fold higher in IC50: 1.32 ± 0.84 µM for the first, 12.5 ± 4.14 µM for the second.

`COc1ccccc1C(C)CCNc1ccccc1` (stereo not drawn) [Example 44] and `COc1ccccc1C(C)CC(=O)Nc1ccccc1` (stereo not drawn) [Example 45] cannot be ordered by IC50: greater than 50 µM for the first, greater than 50 µM for the second.

First: COc1ccc(Br)cc1C(C)CCNc1cccc2cccnc12 (stereo not drawn) [Example 46]
Second: CC(CCNc1cccc2cccnc12)c1c(Cl)cccc1Cl (stereo not drawn) [Example 51]
The IC50 of the first is 11-fold higher: 21.7 ± 2.48 µM for the first, 1.94 ± 0.51 µM for the second. The second is the more potent here.

Compared with `CC(CCNc1cccc2cccnc12)c1ccccc1` (stereo not drawn) [Example 48], `CC(CCNc1ccc(Br)c2cccnc12)c1ccccc1` (stereo not drawn) [Example 53] is lower in IC50: greater than 50 µM for the first, 11.6 ± 0.36 µM for the second. The second is the more potent here.

Compared with `CC(CCOc1cccc2cccnc12)c1ccccc1Cl` (stereo not drawn) [Example 52], `CC(CCNc1ccc(Br)c2cccnc12)c1ccccc1Cl` (stereo not drawn) [FH000006-K-6] is 4-fold higher in IC50: 1.98 ± 0.68 µM for the first, 7.9 µM for the second. The first is the more potent here.

Compared with `CC(CNc1cccc2nccnc12)C(C)c1ccc(Cl)cc1Cl` (stereo not drawn) [Example DV7016], `CC(CNc1cccc2nccnc12)C(C)c1cc(Cl)ccc1Cl` (stereo not drawn) [Example FLS-114] is 3.6-fold lower in IC50: 23.1 µM for the first, 6.4 µM for the second.

`CC(CNc1cccc2[nH]ccc12)C(C)c1ccccc1Cl` (stereo not drawn) [Example FLS-116] and `CC(CNc1cccc2[nH]ccc12)c1ccccc1Cl` (stereo not drawn) [Example FLS-120] are within 1.5-fold of each other in IC50: 3.5 µM for the first, 5 µM for the second.

`CC(CNc1cccc2nccnc12)c1ccccc1Cl` (stereo not drawn) [Example FLS-117] and `CC(CNc1cccc2nccnc12)c1cc(Cl)ccc1Cl` (stereo not drawn) [Example FLS-118] are the same in IC50: 3.2 µM for the first, 3.2 µM for the second.

Work on `CC(CNc1cccc2nccnc12)c1cc(Cl)cc(Cl)c1` (stereo not drawn) [Example FLS-119] yielded an IC50 of 2.7 µM.
